Our source for the Viability %, IC50 and melting point values is patent publication US9447119B2, “Chemical compound for inhibiting the growth and proliferation of human liver cancer cells HepG2 and method for synthesizing it” (priority 2015, dated 2016).

Data set [1] concerns HepG2 (Hepatocellular carcinoma cells). Kind of data set: Cytotoxicity evaluation using viability assay (crystal violet) against HepG2 cell line. As to conditions: 48 hours. It counts as cell-based, human.
Data set [2] has the same test system. The description is as above. The settings on record: for Viability %: 48 hours; for IC50: Homo sapiens, HepG2 cells, 48 hours incubation, crystal violet viability, read-out: inhibition concentration value (IC50) against HepG2. The data set is classed as cell-based, human. The source says: HepG2 cells (human cell line of a well differentiated hepatocellular carcinoma isolated from a liver biopsy of a person) were obtained from the American Type Culture Collection (ATCC). The chemicals used were: Dimethyl sulfoxide (DMSO), crystal violet and trypan blue dye, purchased from Sigma, St. Louis, Mo., USA; DMEM, RPMI-1640, FBS, HEPES buffer solution, L-glutamine, gentamycin and 0.25% Trypsin-EDTA, purchased from BioWhittaker®, Lonza, Belgium; and Crystal violet stain (1%), composed of 0.5% (w/v) crystal violet and 50% methanol, made up to volume with ddH20 and filtered through a Whatmann No. I filter paper.
In the cytotoxicity assay, the cells were propagated in Dulbecco's modified Eagle's medium (DMEM) supplemented with 10% heat-inactivated fetal bovine serum, 1% L-glutamine, HEPES buffer and 50 μg/ml gentamycin. All cells were maintained at 37° C. in a humidified atmosphere with 5% C02 and were subcultured two times a week.
Cell toxicity was monitored by determining the effect of the test samples on cell morphology and cell viability.
For cytotoxicity assay, the cells were seeded in a 96-well plate at a cell concentration of 1×10^4 cells per well in 100 μl of growth medium. Fresh medium containing different concentrations of the test sample was added after 24 hours following seeding. Serial two-fold dilutions of the tested chemical compound were added to confluent cell monolayers dispensed into 96-well, flat-bottomed microtiter plates (Falcon, N.J., USA) using a multichannel pipette. The microtiter plates were incubated at 37° C. in a humidified incubator with 5% C02 for a period of 48 hours. Three wells were used for each concentration of the test sample. Control cells were incubated without test sample and with or without DMSO. The little percentage of DMSO present in the wells (maximal 0.1%) was found not to affect the experiment. After incubation of the cells for 24 hours at 37° C., various concentrations of sample (50, 25, 12.5, 6.25, 3.125 & 1.56 μg) were added, and the incubation was continued for 48 hours and viable cells yield was determined by a colorimetric method.
In brief, after the end of the incubation period, media were aspirated and the crystal violet solution (1%) was added to each well for at least 30 minutes. The stain was removed and the plates were rinsed using tap water until all excess stain was removed. Glacial acetic acid (30%) was then added to all wells and mixed thoroughly and then the absorbance of the plates was measured after being gently shaken on a Microplate reader (TECAN, Inc.), using a test wavelength of 490 nm. All results were corrected for background absorbance detected in wells without added stain. Treated samples were compared with the cell control in the absence of the tested compounds. All experiments were carried out in triplicate.
The cell cytotoxic effect of each tested compound was calculated according to the rapid colorimetric assay for cellular growth and survival: application to proliferation and cytotoxicity assay, published by T. Mosmann in the Journal of Immunology Methods, 1983, 65:55-63; and the antiviral activity of medicinal plants of Nilgriris, published by P. Vijayan et al. in the Indian Journal of Medical Research, 2004, 120: 24-29.

Molecules are shown by their SMILES. Values after ≈ are worked out from the molar mass of the structure shown. Bounds are passed on as bounds.

Consider `COc1cccc2c1C(=O)c1c(O)c3c(c(O)c1C2=O)C[C@@](O)(C(=O)CO)C[C@@H]3O[C@H]1C[C@H](N)[C@H](O)[C@H](C)O1` [Doxorubicin, reference compound], for which the Viability % is recorded as 57.44% in data set [1] (HepG2, sample conc. 0.78 μg); 48.25% in data set [2] (HepG2, sample conc. 1.56 μg); 30.32% in data set [2] (HepG2, sample conc. 3.125 μg); 21.03% in data set [2] (HepG2, sample conc. 6.25 μg); 16.90% in data set [2] (HepG2, sample conc. 12.5 μg); 14.29% in data set [2] (HepG2, sample conc. 25 μg). The same compound displayed a Viability % in data set [2] (HepG2, sample conc. 50 μg) of 10.95%. Moreover, the IC50 in data set [2] was found to be 1.2 µg/mL (≈ 2.21 µM).
With `O=c1c2c3c(sc2nc2sc(Nc4ccc([N+](=O)[O-])cc4)nn12)CCCCC3` [compound of the invention, 2-((4-Nitrophenyl)amino)-7,8,9,10-tetrahydrocyclohepta[4,5]thieno[2,3-d][1,3,4]thiadiazolo[3,2-a]pyrimidin-11(6H)-one], the melting point was more than 300 °C. This compound also displayed a Viability % in data set [1] (HepG2, sample conc. 0.39 μg) of 64.21%. Moreover, in data set [1] (HepG2, sample conc. 0.78 μg), the Viability % worked out at 45.74%. Moreover, the Viability % in data set [2] (HepG2, sample conc. 1.56 μg) came out at 32.86%. The Viability % in data set [2] (HepG2, sample conc. 3.125 μg) amounted to 23.17%. In data set [2] (HepG2, sample conc. 6.25 μg), this compound yielded a Viability % of 13.92%. Also, the Viability % in data set [2] (HepG2, sample conc. 12.5 μg) was determined as 10.04%. For the same compound, the Viability % in data set [2] (HepG2, sample conc. 25 μg) is 7.52%. For the same compound, the Viability % in data set [2] (HepG2, sample conc. 50 μg) was found to be 3.79%. Also, the IC50 in data set [2] amounted to 0.7 µg/mL (≈ 1.69 µM).
